± gives the expanded uncertainty stated by the source.
Tests used:
[1] = activity coefficient (dimensionless); of the first substance listed, at infinite dilution; xn = mol fraction of the nth substance listed; conditions: 101 kPa, Liquid, Chromatography, x1 = 0
[2] = 101.33 kPa, Liquid

SMILES	activity coefficient ([1]; 318.15 K)	activity coefficient ([1]; 323.15 K)	activity coefficient ([1]; 333.15 K)	activity coefficient ([1]; 343.15 K)	activity coefficient ([1]; 353.15 K)	mass density ([2]; 283.15 K) [kg/m3]	mass density ([2]; 293.15 K) [kg/m3]	mass density ([2]; 303.15 K) [kg/m3]	mass density ([2]; 313.15 K) [kg/m3]	mass density ([2]; 323.15 K) [kg/m3]	mass density ([2]; 333.15 K) [kg/m3]	mass density ([2]; 343.15 K) [kg/m3]	activity coefficient ([1]; 353.13 K)
ClC(Cl)(Cl)Cl [tetrachloromethane] + CCCC[N+]1(C)CCCC1.N#CN=C=[N-]	2.04 ± 0.14	2.11 ± 0.14	2.25 ± 0.15	2.38 ± 0.16	2.5 ± 0.17								
CCOC(C)=O [ethyl acetate] + CCCC[N+]1(C)CCCC1.N#CN=C=[N-]	2.33 ± 0.16	2.35 ± 0.16	2.39 ± 0.16	2.43 ± 0.17	2.47 ± 0.17								
CCCCCCCC [octane] + CCCC[N+]1(C)CCCC1.N#CN=C=[N-]	115 ± 8	110 ± 8	102 ± 7	95.2 ± 6.5	89.2 ± 6.1								
CC(C)O [propan-2-ol] + CCCC[N+]1(C)CCCC1.N#CN=C=[N-]	0.771 ± 0.05	0.761 ± 0.05	0.746 ± 0.049	0.733 ± 0.049	0.724 ± 0.048								
CO [methanol] + CCCC[N+]1(C)CCCC1.N#CN=C=[N-]	0.344 ± 0.032	0.344 ± 0.032	0.345 ± 0.032	0.347 ± 0.032	0.348 ± 0.032								
CC#N [acetonitrile] + CCCC[N+]1(C)CCCC1.N#CN=C=[N-]	0.67 ± 0.045	0.676 ± 0.046	0.68 ± 0.046	0.684 ± 0.046	0.687 ± 0.046								
CCC1CCCCC1 [ethylcyclohexane] + CCCC[N+]1(C)CCCC1.N#CN=C=[N-]	50.1 ± 3.4	48.4 ± 3.3	45.1 ± 3.1	42.2 ± 2.9	39.6 ± 2.7								
C1CCOC1 [tetrahydrofuran] + CCCC[N+]1(C)CCCC1.N#CN=C=[N-]	1.36 ± 0.09	1.38 ± 0.09	1.42 ± 0.09	1.46 ± 0.1	1.49 ± 0.1								
c1ccsc1 [thiophene] + CCCC[N+]1(C)CCCC1.N#CN=C=[N-]	0.851 ± 0.055	0.868 ± 0.055	0.901 ± 0.057	0.931 ± 0.059	0.962 ± 0.06								
CCCCCCC [heptane] + CCCC[N+]1(C)CCCC1.N#CN=C=[N-]	76 ± 5.2	73.6 ± 5	68.9 ± 4.7	64.7 ± 4.4	60.9 ± 4.2								
CCc1ccccc1 [ethylbenzene] + CCCC[N+]1(C)CCCC1.N#CN=C=[N-]	3.52 ± 0.24	3.55 ± 0.24	3.6 ± 0.25	3.65 ± 0.25	3.69 ± 0.25								
CCCO [propan-1-ol] + CCCC[N+]1(C)CCCC1.N#CN=C=[N-]	0.688 ± 0.046	0.68 ± 0.046	0.668 ± 0.045	0.656 ± 0.045	0.647 ± 0.044								
CCC(C)=O [butanone] + CCCC[N+]1(C)CCCC1.N#CN=C=[N-]	1.26 ± 0.08	1.27 ± 0.08	1.32 ± 0.09	1.33 ± 0.09	1.35 ± 0.09								
FC(F)(F)C(Cl)Br (configuration not stated) [1-bromo-1-chloro-2,2,2-trifluoroethane] + CCCC[N+]1(C)CCCC1.N#CN=C=[N-]	0.568 ± 0.041	0.606 ± 0.042	0.694 ± 0.047	0.776 ± 0.051	0.866 ± 0.055								
CCO [ethanol] + CCCC[N+]1(C)CCCC1.N#CN=C=[N-]	0.55 ± 0.04	0.545 ± 0.04	0.538 ± 0.039	0.53 ± 0.039	0.525 ± 0.039								
CC(C)OC(C)C [diisopropyl ether] + CCCC[N+]1(C)CCCC1.N#CN=C=[N-]	17.9 ± 1.2	17.9 ± 1.2	18 ± 1.2	17.9 ± 1.2	17.9 ± 1.2								

SMILES	activity coefficient ([1]; 318.15 K)	activity coefficient ([1]; 323.15 K)	activity coefficient ([1]; 333.15 K)	activity coefficient ([1]; 343.15 K)	activity coefficient ([1]; 353.15 K)	mass density ([2]; 283.15 K) [kg/m3]	mass density ([2]; 293.15 K) [kg/m3]	mass density ([2]; 303.15 K) [kg/m3]	mass density ([2]; 313.15 K) [kg/m3]	mass density ([2]; 323.15 K) [kg/m3]	mass density ([2]; 333.15 K) [kg/m3]	mass density ([2]; 343.15 K) [kg/m3]	activity coefficient ([1]; 353.13 K)
COC(=O)OC [dimethyl carbonate] + CCCC[N+]1(C)CCCC1.N#CN=C=[N-]	1.26 ± 0.08	1.27 ± 0.08	1.29 ± 0.08	1.31 ± 0.09	1.33 ± 0.09								
COC(C)=O [methyl ethanoate] + CCCC[N+]1(C)CCCC1.N#CN=C=[N-]	1.51 ± 0.1	1.53 ± 0.1	1.56 ± 0.1	1.59 ± 0.11	1.63 ± 0.11								
CC1CCCCC1 [methylcyclohexane] + CCCC[N+]1(C)CCCC1.N#CN=C=[N-]	32.5 ± 2.2	31.7 ± 2.2	30 ± 2.1	28.4 ± 1.9	27.1 ± 1.9								
ClCCl [dichloromethane] + CCCC[N+]1(C)CCCC1.N#CN=C=[N-]	0.541 ± 0.04	0.558 ± 0.04	0.591 ± 0.042	0.623 ± 0.043	0.655 ± 0.045								
C[N+](=O)[O-] [nitromethane] + CCCC[N+]1(C)CCCC1.N#CN=C=[N-]	0.592 ± 0.042	0.596 ± 0.042	0.604 ± 0.042	0.609 ± 0.043	0.615 ± 0.043								
c1ccccc1 [benzene] + CCCC[N+]1(C)CCCC1.N#CN=C=[N-]	1.41 ± 0.09	1.42 ± 0.09	1.46 ± 0.1	1.49 ± 0.1	1.53 ± 0.1								
CCCC[N+]1(C)CCCC1.N#CN=C=[N-] [1-butyl-1-methylpyrrolidinium dicyanamide]						1021.93 ± 0.57	1016.26 ± 0.55	1010.64 ± 0.53	1005.08 ± 0.51	999.56 ± 0.5	994.1 ± 0.51	988.69 ± 0.53	
CC(C)=O [acetone] + CCCC[N+]1(C)CCCC1.N#CN=C=[N-]	0.905 ± 0.057	0.917 ± 0.058	0.942 ± 0.059	0.963 ± 0.061	0.986 ± 0.062								
ClC(Cl)Cl [trichloromethane] + CCCC[N+]1(C)CCCC1.N#CN=C=[N-]	0.391 ± 0.034	0.411 ± 0.034	0.453 ± 0.036	0.496 ± 0.038	0.54 ± 0.039								
COC(C)(C)C [2-methoxy-2-methylpropane] + CCCC[N+]1(C)CCCC1.N#CN=C=[N-]	6.04 ± 0.41	6.13 ± 0.42	6.29 ± 0.43	6.4 ± 0.44	6.53 ± 0.45								
C=CCCCCCC [oct-1-ene] + CCCC[N+]1(C)CCCC1.N#CN=C=[N-]	47.3 ± 3.2	46.3 ± 3.2	44.4 ± 3	42.4 ± 2.9	40.8 ± 2.8								
Cc1cccc(C)c1 [1,3-dimethylbenzene] + CCCC[N+]1(C)CCCC1.N#CN=C=[N-]	3.46 ± 0.24	3.5 ± 0.24	3.56 ± 0.24	3.61 ± 0.25	3.67 ± 0.25								
C1CCCCC1 [cyclohexane] + CCCC[N+]1(C)CCCC1.N#CN=C=[N-]	21.1 ± 1.4	20.6 ± 1.4	19.5 ± 1.3	18.5 ± 1.3	17.7 ± 1.2								
Cc1ccccc1 [toluene] + CCCC[N+]1(C)CCCC1.N#CN=C=[N-]	2.17 ± 0.15	2.2 ± 0.15	2.26 ± 0.15	2.3 ± 0.16	2.35 ± 0.16								
COCCOC [1,2-dimethoxyethane] + CCCC[N+]1(C)CCCC1.N#CN=C=[N-]	1.19 ± 0.08	1.23 ± 0.08	1.31 ± 0.09	1.39 ± 0.09									1.46 ± 0.1

— the NIST ThermoML archive (doi:10.1021/je200822w)
